Measured values as given in PubChem BioAssay (NCI).
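Exposure lasted 48 hours, with cells grown in 96-well plates and compounds tested at five concentrations. The concentration for full growth arrest is given as TGI.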 Square brackets hold non-standard residues; d marks the D form. Peptide text beside a SMILES is read from it. * marks the point of attachment. Boc = CC(C)(C)OC(=O)*; OBn = c1ccc(CO*)cc1

Tests used:
Assay in all cases: growth of human tumour cells (NCI), 48 h
786-0 renal = system: 786-0 renal
HCT-116 colon = system: HCT-116 colon
HL-60(TB) leukemia = system: HL-60(TB) leukemia
SK-OV-3 ovarian = system: SK-OV-3 ovarian
LOX IMVI melanoma = system: LOX IMVI melanoma
SNB-75 CNS = system: SNB-75 CNS
EKVX NSCLC = system: EKVX NSCLC
NCI-H226 lung = system: NCI-H226 lung
NCI-H23 lung = system: NCI-H23 lung
HS 578T breast = system: HS 578T breast
SK-MEL-28 melanoma = system: SK-MEL-28 melanoma
SW-620 colon = system: SW-620 colon
OVCAR-4 ovarian = system: OVCAR-4 ovarian
HOP-62 NSCLC = system: HOP-62 NSCLC
PC-3 prostate = system: PC-3 prostate
NCI/ADR-RES ovarian = system: NCI/ADR-RES ovarian
DU-145 prostate = system: DU-145 prostate
ACHN renal = system: ACHN renal
KM12 colon = system: KM12 colon
MDA-MB-231 breast = system: MDA-MB-231 breast
SF-268 CNS = system: SF-268 CNS
SN12C renal = system: SN12C renal
A498 renal = system: A498 renal
MALME-3M melanoma = system: MALME-3M melanoma
NCI-H460 lung = system: NCI-H460 lung
MDA-MB-435 = system: MDA-MB-435
OVCAR-3 ovarian = system: OVCAR-3 ovarian
K-562 leukemia = system: K-562 leukemia
HT29 colon = system: HT29 colon
TK-10 renal = system: TK-10 renal
COLO 205 colon = system: COLO 205 colon
M14 melanoma = system: M14 melanoma
MDA-N = system: MDA-N
UO-31 renal = system: UO-31 renal
MCF7 breast = system: MCF7 breast
OVCAR-8 ovarian = system: OVCAR-8 ovarian
SR leukemia = system: SR leukemia
SF-295 CNS = system: SF-295 CNS
IGROV1 ovarian = system: IGROV1 ovarian
UACC-62 melanoma = system: UACC-62 melanoma
U251 CNS = system: U251 CNS
HCT-15 colon = system: HCT-15 colon
UACC-257 melanoma = system: UACC-257 melanoma
SK-MEL-2 melanoma = system: SK-MEL-2 melanoma
RXF 393 renal = system: RXF 393 renal
A549 NSCLC = system: A549 NSCLC
CCRF-CEM leukemia = system: CCRF-CEM leukemia
T-47D breast = system: T-47D breast
CAKI-1 renal = system: CAKI-1 renal
SF-539 CNS = system: SF-539 CNS
BT-549 breast = system: BT-549 breast
SK-MEL-5 melanoma = system: SK-MEL-5 melanoma
OVCAR-5 ovarian = system: OVCAR-5 ovarian
NCI-H522 lung = system: NCI-H522 lung
HOP-92 NSCLC = system: HOP-92 NSCLC
MOLT-4 leukemia = system: MOLT-4 leukemia
SNB-19 CNS = system: SNB-19 CNS
RPMI-8226 leukemia = system: RPMI-8226 leukemia

`CCOC(=O)O/C(=C\c1ccc(OC)cc1)c1c(OC(=O)OCC)n(C(=O)OCC)c2ccccc12` was tested, and the TGI (786-0 renal) was greater than 100 µM, the TGI (HCT-116 colon) was greater than 100 µM and the TGI (HL-60(TB) leukemia) was greater than 100 µM. The TGI (SK-OV-3 ovarian) was 99.7 µM, the TGI (LOX IMVI melanoma) was greater than 100 µM and the TGI (SNB-75 CNS) was greater than 100 µM. The TGI (EKVX NSCLC) was greater than 100 µM, the TGI (NCI-H226 lung) was greater than 100 µM and the TGI (NCI-H23 lung) was greater than 100 µM. It also gave a TGI (HS 578T breast) greater than 100 µM, a TGI (SK-MEL-28 melanoma) greater than 100 µM and a TGI (SW-620 colon) greater than 100 µM. It also gave a TGI (OVCAR-4 ovarian) greater than 100 µM, a TGI (HOP-62 NSCLC) greater than 100 µM and a TGI (PC-3 prostate) greater than 100 µM. For the same molecule, the TGI (NCI/ADR-RES ovarian) was greater than 100 µM, the TGI (DU-145 prostate) was greater than 100 µM and the TGI (ACHN renal) was greater than 100 µM. For the same molecule, the TGI (KM12 colon) was greater than 100 µM, the TGI (MDA-MB-231 breast) was 77.6 µM and the TGI (SF-268 CNS) was greater than 100 µM. The TGI (SN12C renal) was greater than 100 µM, the TGI (A498 renal) was 27.3 µM and the TGI (MALME-3M melanoma) was greater than 100 µM. For the same molecule, the TGI (NCI-H460 lung) was 30.3 µM, the TGI (MDA-MB-435) was greater than 100 µM and the TGI (OVCAR-3 ovarian) was greater than 100 µM. The TGI (K-562 leukemia) was greater than 100 µM, the TGI (HT29 colon) was greater than 100 µM and the TGI (TK-10 renal) was 93.7 µM. It also gave a TGI (COLO 205 colon) greater than 100 µM, a TGI (M14 melanoma) greater than 100 µM and a TGI (MDA-N) greater than 100 µM. The TGI (UO-31 renal) was greater than 100 µM, the TGI (MCF7 breast) was greater than 100 µM and the TGI (OVCAR-8 ovarian) was greater than 100 µM. It also gave a TGI (SR leukemia) greater than 100 µM, a TGI (SF-295 CNS) greater than 100 µM and a TGI (IGROV1 ovarian) greater than 100 µM. For the same molecule, the TGI (UACC-62 melanoma) was greater than 100 µM, the TGI (U251 CNS) was greater than 100 µM and the TGI (HCT-15 colon) was greater than 100 µM. For the same molecule, the TGI (UACC-257 melanoma) was greater than 100 µM, the TGI (SK-MEL-2 melanoma) was greater than 100 µM and the TGI (RXF 393 renal) was 67.9 µM. It also gave a TGI (A549 NSCLC) greater than 100 µM, a TGI (CCRF-CEM leukemia) greater than 100 µM and a TGI (T-47D breast) greater than 100 µM. The TGI (CAKI-1 renal) was greater than 100 µM, the TGI (SF-539 CNS) was greater than 100 µM and the TGI (BT-549 breast) was greater than 100 µM. The TGI (SK-MEL-5 melanoma) was greater than 100 µM and the TGI (OVCAR-5 ovarian) was greater than 100 µM.
For `C[C@@H](NC(=O)CNC(=O)OC(C)(C)C)C(=O)N[C@@H](Cc1ccccc1)C(=O)OCc1ccccc1` (Boc-Gly-[dA]-Phe-OBn), the TGI (786-0 renal) was greater than 100 µM, the TGI (NCI-H522 lung) was 80.4 µM and the TGI (HCT-116 colon) was greater than 100 µM. For the same molecule, the TGI (HL-60(TB) leukemia) was greater than 100 µM, the TGI (SK-OV-3 ovarian) was greater than 100 µM and the TGI (LOX IMVI melanoma) was 58 µM. It also gave a TGI (SNB-75 CNS) greater than 100 µM, a TGI (EKVX NSCLC) greater than 100 µM and a TGI (NCI-H226 lung) greater than 100 µM. The TGI (NCI-H23 lung) was greater than 100 µM, the TGI (HS 578T breast) was 71.2 µM and the TGI (SK-MEL-28 melanoma) was 39.4 µM. The TGI (SW-620 colon) was greater than 100 µM, the TGI (OVCAR-4 ovarian) was greater than 100 µM and the TGI (PC-3 prostate) was greater than 100 µM. The TGI (NCI/ADR-RES ovarian) was greater than 100 µM, the TGI (DU-145 prostate) was greater than 100 µM and the TGI (ACHN renal) was greater than 100 µM. The TGI (KM12 colon) was greater than 100 µM, the TGI (MDA-MB-231 breast) was greater than 100 µM and the TGI (HOP-92 NSCLC) was 45.3 µM. The TGI (SF-268 CNS) was greater than 100 µM, the TGI (SN12C renal) was greater than 100 µM and the TGI (MALME-3M melanoma) was 32.6 µM. It also gave a TGI (MOLT-4 leukemia) of 88.1 µM, a TGI (MDA-MB-435) greater than 100 µM and a TGI (K-562 leukemia) of 64.4 µM. The TGI (HT29 colon) was greater than 100 µM, the TGI (TK-10 renal) was greater than 100 µM and the TGI (COLO 205 colon) was 32.7 µM. The TGI (M14 melanoma) was 44.7 µM, the TGI (MDA-N) was greater than 100 µM and the TGI (UO-31 renal) was greater than 100 µM. For the same molecule, the TGI (SNB-19 CNS) was greater than 100 µM, the TGI (MCF7 breast) was greater than 100 µM and the TGI (OVCAR-8 ovarian) was greater than 100 µM. For the same molecule, the TGI (SR leukemia) was 88.9 µM, the TGI (SF-295 CNS) was greater than 100 µM and the TGI (IGROV1 ovarian) was greater than 100 µM. For the same molecule, the TGI (UACC-62 melanoma) was greater than 100 µM, the TGI (U251 CNS) was greater than 100 µM and the TGI (HCT-15 colon) was greater than 100 µM. The TGI (UACC-257 melanoma) was greater than 100 µM, the TGI (SK-MEL-2 melanoma) was greater than 100 µM and the TGI (RXF 393 renal) was greater than 100 µM. The TGI (A549 NSCLC) was greater than 100 µM, the TGI (CCRF-CEM leukemia) was 67 µM and the TGI (T-47D breast) was greater than 100 µM. It also gave a TGI (CAKI-1 renal) greater than 100 µM, a TGI (SF-539 CNS) greater than 100 µM and a TGI (BT-549 breast) greater than 100 µM. The TGI (SK-MEL-5 melanoma) was 42.2 µM and the TGI (OVCAR-5 ovarian) was greater than 100 µM.
With `CC(C)C(=O)OCN(C)c1nc(N(C)COC(=O)C(C)C)nc(N(C)COC(=O)C(C)C)n1` the TGI (786-0 renal) was 65.2 µM, the TGI (NCI-H522 lung) was 36 µM and the TGI (HCT-116 colon) was greater than 100 µM. It also gave a TGI (HL-60(TB) leukemia) of 48.9 µM, a TGI (LOX IMVI melanoma) of 39.1 µM and a TGI (SNB-75 CNS) of 61.9 µM. The TGI (EKVX NSCLC) was greater than 100 µM, the TGI (NCI-H226 lung) was greater than 100 µM and the TGI (NCI-H23 lung) was 41.2 µM. For the same molecule, the TGI (HS 578T breast) was 49.1 µM, the TGI (SK-MEL-28 melanoma) was 44.5 µM and the TGI (RPMI-8226 leukemia) was greater than 100 µM. The TGI (SW-620 colon) was 89.6 µM, the TGI (OVCAR-4 ovarian) was 58.3 µM and the TGI (HOP-62 NSCLC) was greater than 100 µM. For the same molecule, the TGI (PC-3 prostate) was greater than 100 µM, the TGI (NCI/ADR-RES ovarian) was greater than 100 µM and the TGI (DU-145 prostate) was greater than 100 µM. It also gave a TGI (ACHN renal) of 99.6 µM, a TGI (KM12 colon) of 43.9 µM and a TGI (MDA-MB-231 breast) of 57.7 µM. For the same molecule, the TGI (SN12C renal) was greater than 100 µM, the TGI (A498 renal) was greater than 100 µM and the TGI (MOLT-4 leukemia) was 58.1 µM. The TGI (NCI-H460 lung) was 54.2 µM, the TGI (MDA-MB-435) was 32.2 µM and the TGI (OVCAR-3 ovarian) was greater than 100 µM. For the same molecule, the TGI (K-562 leukemia) was greater than 100 µM, the TGI (HT29 colon) was 66.3 µM and the TGI (TK-10 renal) was greater than 100 µM. The TGI (COLO 205 colon) was 51.3 µM, the TGI (M14 melanoma) was 33 µM and the TGI (MDA-N) was 46.2 µM. It also gave a TGI (UO-31 renal) of 52.5 µM, a TGI (SNB-19 CNS) greater than 100 µM and a TGI (MCF7 breast) greater than 100 µM. It also gave a TGI (OVCAR-8 ovarian) of 45.5 µM, a TGI (SR leukemia) of 50.5 µM and a TGI (SF-295 CNS) of 93.2 µM. It also gave a TGI (HCT-15 colon) of 51 µM, a TGI (UACC-257 melanoma) of 38.2 µM and a TGI (SK-MEL-2 melanoma) of 49.8 µM. The TGI (A549 NSCLC) was greater than 100 µM, the TGI (CCRF-CEM leukemia) was 70.5 µM and the TGI (T-47D breast) was greater than 100 µM. The TGI (CAKI-1 renal) was greater than 100 µM, the TGI (SF-539 CNS) was 53.9 µM and the TGI (BT-549 breast) was 46.2 µM. The TGI (SK-MEL-5 melanoma) was 28.4 µM and the TGI (OVCAR-5 ovarian) was 95.3 µM.
